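Dose response: 5 concentrations. Exposure: 48 h. Format: 96-well plates. Endpoint: linear interpolation; highest concentration if not reached. The concentration for 50% growth inhibition is given as GI50.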 Calls of active or inactive are those of the source. Rule as the data show it: active = GI50 up to about 1.1 µM and inactive = higher.
Columns and labels:
Assay in all cases: NCI tumour cell line growth inhibition, 48 h
786-0 = test system: 786-0
A498 = test system: A498
ACHN = test system: ACHN
CAKI-1 = test system: CAKI-1
CCRF-CEM = test system: CCRF-CEM
EKVX = test system: EKVX
KM12 = test system: KM12
NCI-H23 = test system: NCI-H23
NCI-H460 = test system: NCI-H460
NCI-H522 = test system: NCI-H522
RXF 393 = test system: RXF 393
SF-268 = test system: SF-268
SN12C = test system: SN12C
SNB-19 = test system: SNB-19
U-251 = test system: U-251
HCT-15 = test system: HCT-15
RPMI-8226 = test system: RPMI-8226

Row | SMILES | GI50 (786-0) | GI50 (A498) | GI50 (ACHN) | GI50 (CAKI-1) | GI50 (CCRF-CEM) | GI50 (EKVX) | GI50 (KM12) | GI50 (NCI-H23) | GI50 (NCI-H460) | GI50 (NCI-H522) | GI50 (RXF 393) | GI50 (SF-268) | GI50 (SN12C) | GI50 (SNB-19) | GI50 (U-251) | GI50 (HCT-15) | GI50 (RPMI-8226)
1 | N#CC(/C(CCCC(=O)Nc1cccc([N+](=O)[O-])c1)=N\NC(=O)c1c(O)ccc2ccccc12)c1nc2ccccc2s1 (configuration not stated) | 34.6 µM (inactive) | 35.1 µM (inactive) | 20.7 µM (inactive) | 36.7 µM (inactive) | 5.35 µM (inactive) | 35.4 µM (inactive) | 28.8 µM (inactive) | 37.5 µM (inactive) | 13.7 µM (inactive) | 25.8 µM (inactive) | 33.4 µM (inactive) | 13.1 µM (inactive) | 25.6 µM (inactive) | 36.8 µM (inactive) | 16.3 µM (inactive) |  | 
2 | COc1cc2c(cc1O)C(C)Cc1cc3c(cc1N(C)CC2)OCO3 (configuration not stated) | 4.35 µM (inactive) | 13.2 µM (inactive) | 6.85 µM (inactive) | 12.1 µM (inactive) | 4.59 µM (inactive) | 4.26 µM (inactive) | 4.15 µM (inactive) | 4.07 µM (inactive) | 3.35 µM (inactive) | 2.18 µM (inactive) | 1.77 µM (inactive) | 5.3 µM (inactive) | 5.94 µM (inactive) | 7.4 µM (inactive) | 4.01 µM (inactive) | 3.94 µM | 4.09 µM (inactive)
3 | COc1ccc(/C=C/C(=O)C(C)(C)CN2CCCCC2)cc1 | 16 µM (inactive) | 16.9 µM (inactive) | 24.4 µM (inactive) |  | 24.2 µM (inactive) | 44.7 µM (inactive) | 22.1 µM (inactive) | 24.5 µM (inactive) | 18.7 µM (inactive) | 14 µM (inactive) | 21.3 µM (inactive) | 22.1 µM (inactive) | 18.3 µM (inactive) | 57.7 µM (inactive) | 15.4 µM (inactive) | 16.3 µM | 18.2 µM (inactive)
4 | CC1OC(n2ccc3ccc([N+](=O)[O-])cc32)C(O)C(O)C1O (configuration not stated) | > 100 µM (inactive) | > 100 µM (inactive) | > 100 µM (inactive) | > 100 µM (inactive) | > 100 µM (inactive) | > 100 µM (inactive) | > 100 µM (inactive) | > 100 µM (inactive) | > 100 µM (inactive) | > 100 µM (inactive) | > 100 µM (inactive) | > 100 µM (inactive) | > 100 µM (inactive) | > 100 µM (inactive) | > 100 µM (inactive) | > 100 µM | > 100 µM (inactive)
5 | CC1=CCC[C@@]2(C)C(CC[C@@H]2C(C)/C=C/C(C)C)c2ccc(cc2C(=O)O)C[C@@H](O)CC1 (some centres not stated) | 14.6 µM (inactive) | 20.2 µM (inactive) | 6.37 µM (inactive) | 17 µM (inactive) | 5.09 µM (inactive) |  | 11 µM (inactive) | > 10 µM (inactive) | 7.01 µM (inactive) | 13.5 µM (inactive) | 15.9 µM (inactive) | 14.2 µM (inactive) | 16 µM (inactive) | 5.2 µM (inactive) | 3.94 µM (inactive) | 5.07 µM | 3.63 µM (inactive)
6 | CN(C)CCNC(=O)c1cccc2nc3c(Cl)cccc3nc12 | 7.98 µM (inactive) | 4.63 µM (inactive) | 3.13 µM (inactive) | > 20.7 µM (inactive) |  | 8.61 µM (inactive) | 5.75 µM (inactive) | 5.61 µM (inactive) |  | 14.3 µM (inactive) | 3.4 µM (inactive) |  | 4.52 µM (inactive) | 8.13 µM (inactive) | 5.18 µM (inactive) | 4.08 µM | 4.23 µM (inactive)
7 | Cc1ccc(C(=O)Nc2ccccc2)cc1/N=N/N(C)C | 21 µM (inactive) |  | > 100 µM (inactive) | > 100 µM (inactive) |  | > 100 µM (inactive) | > 100 µM (inactive) | > 100 µM (inactive) | > 100 µM (inactive) | 35.2 µM (inactive) |  | > 100 µM (inactive) | > 100 µM (inactive) | > 100 µM (inactive) | > 100 µM (inactive) | > 100 µM | 
8 | O=[N+]([O-])c1nccn1CC(O)c1ccccc1 (configuration not stated) | > 100 µM (inactive) | > 100 µM (inactive) | > 100 µM (inactive) | > 100 µM (inactive) | > 100 µM (inactive) | > 100 µM (inactive) | > 100 µM (inactive) | > 100 µM (inactive) | > 100 µM (inactive) | > 100 µM (inactive) | > 100 µM (inactive) | > 100 µM (inactive) | > 100 µM (inactive) | > 100 µM (inactive) | > 100 µM (inactive) | > 100 µM | > 100 µM (inactive)
9 | COC(=O)[C@@]1(O)CC(C)C=C1C=O (some centres not stated) | 60.5 µM (inactive) | > 100 µM (inactive) | > 100 µM (inactive) | > 100 µM (inactive) | 25.3 µM (inactive) | > 100 µM (inactive) | 67.5 µM (inactive) | > 100 µM (inactive) | 20.6 µM (inactive) | 20 µM (inactive) | 15.8 µM (inactive) | 43.2 µM (inactive) | > 100 µM (inactive) | > 100 µM (inactive) | 18.2 µM (inactive) | 17.8 µM | > 100 µM (inactive)

Source: ChEMBL document CHEMBL1201862, “PubChem BioAssay data set” (2004)
